Test results taken from patent US20210205329A1 (The University of North Carolina at Chapel Hill, priority 2018, published 2021).
“And” between values parts separate entries of the source, which are not always exact repeats. Equal entries are not always repeated.

Tests used:
TLR7 signal = test: Imiquimod-activated TLR7 signaling in RAW264.7 cells; assay type: cell-based, mouse; conditions: 1 μM; imiquimod 1 μg/ml; 24 hours
Protocol: Because multiple TLRs signal through MD-2, […] and MyD-88, the specificity of the neurosteroid 3α,5α-THP on TLR2, TLRS and TLR7 signal activation was examined in RAW264.7 ceils (FIG. 7). Pam3Cys (10 μg/ml) activated TLR2 signaling, evidenced by increases in pCREB, pERK1/2, TRAF6 and pATF-2, that were sustained for 24 hrs and inhibited by 3α,5α-THP (1 μM) (50-60% compared to vehicle).

TLR4/GABAAR α2 binding = target: T1, TLR4/GABAAR α2 binding (Rattus norvegicus, UniProt Q9QX05); test: TLR4/GABAAR α2 co-immunoprecipitation in P rat VTA; assay type: in vivo; conditions: 15 mg/kg IP, P rats
T1 construct: from tissue; host or cells: ventral tegmental area (VTA) of alcohol-preferring (P) rats
T1 sequence (Q9QX05 26-835): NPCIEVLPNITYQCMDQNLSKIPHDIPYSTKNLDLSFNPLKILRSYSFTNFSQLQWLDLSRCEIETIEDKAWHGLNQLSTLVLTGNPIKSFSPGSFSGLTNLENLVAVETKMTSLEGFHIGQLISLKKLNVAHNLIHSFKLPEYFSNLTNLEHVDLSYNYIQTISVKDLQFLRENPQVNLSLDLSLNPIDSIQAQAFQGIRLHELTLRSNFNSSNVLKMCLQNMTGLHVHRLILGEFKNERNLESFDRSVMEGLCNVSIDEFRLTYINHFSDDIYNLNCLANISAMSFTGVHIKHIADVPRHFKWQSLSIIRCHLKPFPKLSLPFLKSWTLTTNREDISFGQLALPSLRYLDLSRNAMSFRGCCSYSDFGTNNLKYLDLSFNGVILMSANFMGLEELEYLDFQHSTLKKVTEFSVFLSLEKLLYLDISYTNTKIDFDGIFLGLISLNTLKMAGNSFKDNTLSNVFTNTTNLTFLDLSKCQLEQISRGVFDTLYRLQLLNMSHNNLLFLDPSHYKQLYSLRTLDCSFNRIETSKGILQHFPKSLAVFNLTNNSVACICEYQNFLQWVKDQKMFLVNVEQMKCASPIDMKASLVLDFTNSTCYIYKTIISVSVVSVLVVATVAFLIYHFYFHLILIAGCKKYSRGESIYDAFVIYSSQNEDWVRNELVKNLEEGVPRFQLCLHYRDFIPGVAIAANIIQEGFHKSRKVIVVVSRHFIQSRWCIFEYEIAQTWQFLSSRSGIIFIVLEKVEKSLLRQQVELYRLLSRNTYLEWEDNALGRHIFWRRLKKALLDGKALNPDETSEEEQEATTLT
Protocol: (§1) Co-Immunoprecipitation Assay RAW264.7 cells [treated with LPS (1 μg/ml), 3α,5α-THP (1 μM) or pregnenolone (1 μM)] were exposed to chemical protein crosslinking (Poulopoulos et al, 2009) at 24 hrs post-treatment. Briefly, the cells were incubated (20 min on ice) with 1 mM of the cleavable, membrane-permeable crosslinker DSP (Thermo Fisher Scientific, Cat. #PG82081). Rat VTA homogenates were incubated (20 min on ice) with 200 μM of DSP. The crosslinker was quenched in 1 M Tris buffer (pH 7.5) (to a final concentration of 10-20 mM), and the material was centrifuged at 21,000×g for 15 min. Proteins from the cells were extracted with Pierce IP Lysis Buffer (Thermo Fisher Scientific, Cat. #87787) supplemented with protease and phosphatase inhibitor cocktails (Sigma). Proteins from the VTA were extracted with CelLytic MT (dialyzable mild detergent, bicine and 150 mM NaCl; Sigma Aldrich, St. Louis, Mo., USA, Cat. #C3228) supplemented with protease and phosphatase inhibitor cocktails (Sigma) according to the manufacturers instructions. […]

HMGB1 binding to TLR4 = target: T2, HMGB1 binding to TLR4 (Rattus norvegicus, UniProt Q9QX05); test: TLR4/HMGB1 co-immunoprecipitation in P rat VTA; assay type: in vivo; conditions: 15 mg/kg IP, P rats
T2 construct: from tissue; host or cells: ventral tegmental area (VTA) of alcohol-preferring (P) rats
T2 sequence (Q9QX05 26-835): T1 sequence (Q9QX05 26-835)
Protocol: as §1

CC(=O)[C@H]1CC[C@H]2[C@@H]3CC[C@H]4C[C@H](O)CC[C@]4(C)[C@H]3CC[C@]12C [3α,5α-THP, (3α,5α)3-hydroxypregnan-20-one]
effect of imiquimod on pIRF7 (TLR7 signal): completely inhibited
inhibition of TLR4/GABAAR α2 binding (α2 co-precipitating with TLR4) in VTA (TLR4/GABAAR α2 binding): 62.7±9.2% and 82.7±9.2% and ~80%
HMGB1 binding to TLR4 in VTA (HMGB1 binding to TLR4): not altered
